Source: publication PMC6774887 (Molecular cancer therapeutics, 2019)

Experiments:
[1] = biological target: T1, AICARFTase (ATIC) (Homo sapiens, UniProt P31939); test: spectrophotometric THF formation; type: biochemical
[2] = biological target: T2, MTHFD2 (Homo sapiens, UniProt P13995); test: NAD; type: biochemical
T2 sequence (P13995 36-333): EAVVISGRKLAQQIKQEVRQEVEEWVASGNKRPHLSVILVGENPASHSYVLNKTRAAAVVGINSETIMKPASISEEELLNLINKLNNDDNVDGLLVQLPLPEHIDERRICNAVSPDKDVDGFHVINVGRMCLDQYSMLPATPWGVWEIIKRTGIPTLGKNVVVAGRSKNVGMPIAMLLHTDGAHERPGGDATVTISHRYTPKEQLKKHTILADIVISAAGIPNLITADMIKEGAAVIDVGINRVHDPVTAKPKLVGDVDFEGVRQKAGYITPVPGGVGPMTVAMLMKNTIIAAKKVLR

[3] = biological target: T1, AICARFTase (ATIC); test: spectrophotometric THF formation from 10-formyl-THF; type: biochemical; settings: Ki = IC50/([S]/KM+[…]); KM of […]-formyl-THF […]
[4] = biological target: T3, SHMT1 (Homo sapiens, UniProt P34896); test: coupled SHMT/MTHFD2 assay, NADH fluorescence; type: biochemical; settings: Ki = IC50/([S]/KM+[…]); KM of THF […]; His-MTHFD2 in […] molar excess
T3 sequence (P34896 7-478): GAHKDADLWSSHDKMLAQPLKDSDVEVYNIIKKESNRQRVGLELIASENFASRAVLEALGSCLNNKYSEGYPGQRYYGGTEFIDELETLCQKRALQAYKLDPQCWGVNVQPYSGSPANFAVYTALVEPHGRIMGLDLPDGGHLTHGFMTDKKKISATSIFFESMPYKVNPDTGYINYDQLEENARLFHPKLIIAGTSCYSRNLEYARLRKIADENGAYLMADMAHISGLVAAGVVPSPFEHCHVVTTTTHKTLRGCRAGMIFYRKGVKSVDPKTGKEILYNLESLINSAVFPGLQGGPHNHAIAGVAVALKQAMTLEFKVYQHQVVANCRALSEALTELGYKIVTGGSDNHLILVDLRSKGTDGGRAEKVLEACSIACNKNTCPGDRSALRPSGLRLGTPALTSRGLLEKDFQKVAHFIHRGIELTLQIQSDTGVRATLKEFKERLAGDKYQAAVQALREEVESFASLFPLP

[5] = biological target: T4, SHMT2 (Homo sapiens, UniProt P34897); test: coupled SHMT/MTHFD2 assay, NADH fluorescence; type: biochemical; settings: Ki = IC50/([S]/KM+[…]); KM of THF […]; His-MTHFD2 in […] molar excess
T4 sequence (P34897 42-504): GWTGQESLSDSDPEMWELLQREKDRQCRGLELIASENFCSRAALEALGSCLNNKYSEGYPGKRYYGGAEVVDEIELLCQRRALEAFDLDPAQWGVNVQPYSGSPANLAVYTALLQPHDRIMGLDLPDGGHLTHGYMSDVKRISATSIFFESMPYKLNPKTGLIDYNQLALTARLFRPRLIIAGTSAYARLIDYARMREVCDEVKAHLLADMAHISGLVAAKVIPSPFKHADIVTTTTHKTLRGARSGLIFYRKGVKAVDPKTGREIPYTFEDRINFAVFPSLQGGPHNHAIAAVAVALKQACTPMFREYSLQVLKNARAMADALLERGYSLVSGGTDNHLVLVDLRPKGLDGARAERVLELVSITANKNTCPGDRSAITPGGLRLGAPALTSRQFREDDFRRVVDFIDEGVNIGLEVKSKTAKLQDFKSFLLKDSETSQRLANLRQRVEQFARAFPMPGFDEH

[6] = biological target: T4, SHMT2; test: coupled SHMT/MTHFD2 assay, NADH fluorescence; type: biochemical; settings: His-MTHFD2 in […] molar excess
[7] = biological target: T3, SHMT1; test: coupled SHMT/MTHFD2 assay, NADH fluorescence; type: biochemical; settings: His-MTHFD2 in […] molar excess
[8] = substrate: Nc1nc2c(c(=O)[nH]1)N[C@@H](CN(C=O)c1ccc(C(=O)N[C@@H](CCC(=O)O)C(=O)O)cc1)CN2; test: spectrophotometric THF formation; type: biochemical, Homo sapiens

T1 sequence (P31939 whole entry): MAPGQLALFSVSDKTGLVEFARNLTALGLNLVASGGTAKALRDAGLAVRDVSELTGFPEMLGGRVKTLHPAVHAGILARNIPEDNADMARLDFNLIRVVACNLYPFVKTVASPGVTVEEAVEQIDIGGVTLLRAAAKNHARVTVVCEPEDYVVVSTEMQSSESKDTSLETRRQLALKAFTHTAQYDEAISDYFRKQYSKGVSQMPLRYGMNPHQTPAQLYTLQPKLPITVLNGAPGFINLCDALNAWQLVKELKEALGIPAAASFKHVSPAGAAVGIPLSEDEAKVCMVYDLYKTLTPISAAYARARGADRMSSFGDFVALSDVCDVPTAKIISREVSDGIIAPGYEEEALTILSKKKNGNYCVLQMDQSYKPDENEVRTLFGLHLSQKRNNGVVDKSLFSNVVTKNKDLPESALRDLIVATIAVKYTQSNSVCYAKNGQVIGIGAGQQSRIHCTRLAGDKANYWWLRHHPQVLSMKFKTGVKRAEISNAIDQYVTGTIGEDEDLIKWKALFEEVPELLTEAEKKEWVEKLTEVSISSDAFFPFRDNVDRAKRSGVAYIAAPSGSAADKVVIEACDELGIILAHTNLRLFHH

Molecule: Nc1nc2c(c(=O)[nH]1)N[C@@H](CN(C=O)c1ccc(C(=O)N[C@@H](CCC(=O)O)C(=O)O)cc1)CN2 [10-formyl-THF]
- Km [1]: 100 µM

Molecule: Nc1nc2[nH]c(CCCc3ccc(C(=O)N[C@@H](CCC(=O)O)C(=O)O)s3)cc2c(=O)[nH]1 [AGF94]
- NI (no inhibition up to 200 μM inhibitor; Ki column) [2]: > 200 µM
- NI (no inhibition up to 200 μM inhibitor; Ki column) [3]: > 200 µM

Molecule: Nc1nc(=O)c2c(CCc3ccc(C(=O)N[C@@H](CCC(=O)O)C(=O)O)cc3)c[nH]c2[nH]1 [PMX]
- NI (no inhibition up to 200 μM inhibitor; Ki column) [2]: > 200 µM
- NI (no inhibition up to 200 μM inhibitor; Ki column) [4]: > 200 µM
- NI (no inhibition up to 200 μM inhibitor; Ki column) [5]: > 200 µM

Molecule: Nc1nc2c(c(=O)[nH]1)N[C@@H](CNc1ccc(C(=O)N[C@@H](CCC(=O)O)C(=O)O)cc1)CN2 [THF]
- Km [6]: 108 µM
- Km [7]: 62.8 µM

Molecule: AGF320
- NI (no inhibition up to 200 μM inhibitor; Ki column) [2]: > 200 µM

B1: GARFTase (Homo sapiens) (protein)
chain: ARVAVLISGTGSNLQALIDSTREPNSSAQIDIVISNKAAVAGLDKAERAGIPTRVINHKLYKNRVEFDSAIDLVLEEFSIDIVCLAGFMRILSGPFVQKWNGKMLNIHPSLLPSFKGSNAHEQALETGVTVTGCTVHFVAEDVDAGQIILQEAVPVKRGDTVATLSERVKLAEHKIFPAALQLVASGTVQLGENGKICWVKEE
- Km [8]: 84.8 µM
